Laboratory results reported in DBAASP.
Values after ≈ are worked out from the molar mass of the structure shown. One block for each compound: values may come before it.

Columns and labels:
Experiment in all cases: ≥ marks a high value that may be exact or a test limit, other limits are often not marked, values filed in µg/mL are converted to µM
[1] = tested on: Staphylococcus epidermidis
Fusarium verticillioides = tested on: Fusarium verticillioides
Saccharomyces cerevisiae = tested on: Saccharomyces cerevisiae
[2] = tested on: Candida albicans KCTC 7270
Trichosporon beigelii = tested on: Trichosporon beigelii
Escherichia coli = tested on: Escherichia coli
Bacillus subtilis = tested on: Bacillus subtilis
Pseudomonas aeruginosa = tested on: Pseudomonas aeruginosa
Botrytis cinerea = tested on: Botrytis cinerea
Proteus vulgaris = tested on: Proteus vulgaris
Salmonella typhimurium = tested on: Salmonella typhimurium
[3] = tested on: Escherichia coli O157:H7 ATCC 43895
[4] = tested on: Aspergillus fumigatus KCTC 6145
[5] = tested on: Listeria monocytogenes KCTC 3710
[6] = tested on: Aspergillus flavus KCTC 9471
Staphylococcus aureus = tested on: Staphylococcus aureus
[7] = tested on: Salmonella enterica subsp. enterica serovar Typhi
[8] = tested on: Xanthomonas axonopodis ITCC BD00029
Vibrio cholerae = tested on: Vibrio cholerae
Bacillus cereus = tested on: Bacillus cereus
[9] = tested on: Candida albicans MTCC 227
[10] = tested on: Fusarium solani MTCC 10158
[11] = tested on: Escherichia coli DH5alpha
[12] = tested on: Staphylococcus aureus ATCC 43300
[13] = tested on: Xanthomonas oryzae ITCC BB00026
[14] = tested on: Edwardsiella tarda FP4130
[15] = tested on: Aeromonas salmonicida RFAS1
[16] = tested on: Vibrio ordalii KCCM 41669
[17] = tested on: Vibrio alginolyticus KCCM 2928
[18] = tested on: Streptococcus iniae FP5228
[19] = tested on: Vibrio harveyi ATCC 14126
[20] = tested on: Vibrio campbellii KCCM 40684
Edwardsiella tarda = tested on: Edwardsiella tarda
Escherichia coli JM109 = tested on: Escherichia coli JM109
[21] = tested on: Vibrio vulnificus KCTC 2982
[22] = tested on: Pseudomonas aeruginosa 5167
[23] = tested on: Pseudomonas aeruginosa 1570
[24] = tested on: Staphylococcus aureus E4049
[25] = tested on: Staphylococcus aureus 5118
[26] = tested on: Staphylococcus aureus ATCC 9144
[27] = tested on: Pseudomonas syringae EPS 94
[28] = tested on: Erwinia amylovora PMV 6076
[29] = tested on: Rhizopus stolonifer CECT 2344
[30] = tested on: Penicillium expansum EPS 26
[31] = tested on: Aspergillus niger CECT 2694
[32] = tested on: Xanthomonas vesicatoria 2133-2
[33] = tested on: Fusarium oxysporum f. sp. lycopersici ATCC 201829

Structure (SMILES): CC[C@H](C)[C@H](NC(=O)[C@H](CCCCN)NC(=O)[C@H](CO)NC(=O)[C@H](Cc1ccccc1)NC(=O)[C@H](CO)NC(=O)[C@H](CCCCN)NC(=O)[C@H](CCC(=O)O)NC(=O)[C@H](CC(C)C)NC(=O)[C@H](CCCN=C(N)N)NC(=O)[C@H](CCCCN)NC(=O)[C@H](Cc1ccccc1)NC(=O)[C@@H](NC(=O)[C@H](CCCCN)NC(=O)[C@H](CCCCN)NC(=O)[C@H](C)N)C(C)C)C(=O)N[C@@H](CCC(N)=O)C(=O)N[C@@H](CC(N)=O)C(=O)N[C@@H](CC(=O)O)C(=O)N[C@@H](CCCCN)C(N)=O [AKKVFKRLEKSFSKIQNDK]
- MIC [1]: 12.5 µM (≈ 28.7 µg/mL)
- MIC (Fusarium verticillioides): ≥ 50 µM
- MIC (Saccharomyces cerevisiae): 25 µM (≈ 57.3 µg/mL)
- MIC [2]: 25 µM (≈ 57.3 µg/mL)
- MIC (Trichosporon beigelii): 12.5 µM (≈ 28.7 µg/mL)
- MIC (Escherichia coli): 12.5 µM (≈ 28.7 µg/mL)
- MIC (Bacillus subtilis): 6.25 µM (≈ 14.3 µg/mL)
- MIC (Pseudomonas aeruginosa): 12.5 µM (≈ 28.7 µg/mL)
- MIC (Botrytis cinerea): ≥ 50 µM
- MIC (Proteus vulgaris): 12.5 µM (≈ 28.7 µg/mL)
- MIC (Salmonella typhimurium): 12.5 µM (≈ 28.7 µg/mL)
- MIC [3]: 12.5 µM (≈ 28.7 µg/mL)
- MIC [4]: ≥ 50 µM
- MIC [5]: 12.5 µM (≈ 28.7 µg/mL)
- MIC [6]: ≥ 50 µM
- MIC (Staphylococcus aureus): > 12.5 µM

Structure (SMILES): NCCCC[C@H](NC(=O)[C@H](CCCCN)NC(=O)[C@H](CS)NC(=O)[C@@H]1CSSC[C@H](N)C(=O)N[C@@H](CCCN=C(N)N)C(=O)N[C@@H](Cc2c[nH]c3ccccc23)C(=O)N[C@@H](CCCN=C(N)N)C(=O)N[C@@H](Cc2c[nH]c3ccccc23)C(=O)N[C@@H](CCCCN)C(=O)N1)C(=O)O [CRWRWKCCKK]
- MIC [7]: 10 µM (≈ 13.9 µg/mL)
- MIC [8]: 5 µM (≈ 6.97 µg/mL)
- MIC (Vibrio cholerae): 20 µM (≈ 27.9 µg/mL)
- MIC (Bacillus cereus): 10 µM (≈ 13.9 µg/mL)
- MIC [9]: ≥ 40 µM
- MIC [10]: 20 µM (≈ 27.9 µg/mL)
- MIC [11]: 20 µM (≈ 27.9 µg/mL)
- MIC [12]: 10 µM (≈ 13.9 µg/mL)
- MIC [13]: 10 µM (≈ 13.9 µg/mL)

Structure (SMILES): CC(C)C[C@H](NC(=O)[C@H](CCCN=C(N)N)NC(=O)CNC(=O)[C@H](Cc1ccccc1)NC(=O)[C@@H](N)Cc1ccccc1)C(=O)N[C@@H](CCCCN)C(=O)N[C@@H](C)C(=O)N[C@H](C(=O)N[C@@H](Cc1ccccc1)C(=O)N[C@@H](CCCN=C(N)N)C(=O)NCC(=O)N[C@@H](C)C(=O)N[C@@H](CCCN=C(N)N)C(=O)N[C@@H](CCC(N)=O)C(=O)NCC(=O)N[C@@H](Cc1c[nH]c2ccccc12)C(=O)N[C@@H](CCCCN)C(=O)N[C@@H](CCC(=O)O)C(=O)N[C@@H](Cc1cnc[nH]1)C(=O)N[C@@H](CCCN=C(N)N)C(=O)N[C@@H](Cc1ccc(O)cc1)C(=O)O)C(C)C [FFGRLKAVFRGARQGWKEHRY]
- MIC [14]: 15.6 µM (≈ 40.7 µg/mL)
- MIC [15]: 7.8 µM (≈ 20.4 µg/mL)
- MIC [16]: 15.6 µM (≈ 40.7 µg/mL)
- MIC [17]: 0.5 µM (≈ 1.31 µg/mL)
- MIC [18]: 7.8 µM (≈ 20.4 µg/mL)
- MIC [19]: 0.5 µM (≈ 1.31 µg/mL)

Structure (SMILES): CSCC[C@H](NC(=O)[C@@H](NC(=O)[C@H](Cc1ccccc1)NC(=O)[C@H](CC(C)C)NC(=O)[C@H](CC(C)C)NC(=O)[C@@H](NC(=O)[C@H](C)NC(=O)[C@@H](N)CC(C)C)[C@@H](C)O)[C@@H](C)O)C(=O)N[C@@H](CS)C(=O)N[C@@H](CC(C)C)C(=O)N[C@@H](CC(N)=O)C(=O)N[C@@H](Cc1ccccc1)C(=O)N[C@@H](CS)C(=O)NCC(=O)N[C@H](C(=O)N[C@@H](CC(C)C)C(=O)N[C@@H](C)C(=O)NCC(=O)N[C@@H](CC(=O)O)C(=O)N[C@@H](CC(=O)O)C(=O)O)C(C)C [LATLLFTMCLNFCGVLAGDD]
- MIC [24]: 15.6 µM (≈ 33 µg/mL)
- MIC [25]: 3.78 µM (≈ 8 µg/mL)
- MIC [26]: ≥ 125 µM

Other lines, results leading:

- MIC [20]: 0.9 µM (≈ 2.08 µg/mL)
- MIC (Edwardsiella tarda): 11 µM (≈ 25.4 µg/mL)
- MIC [16]: ≥ 1000 µM
- MIC [17]: 0.9 µM (≈ 2.08 µg/mL)
- MIC [18]: 1.9 µM (≈ 4.38 µg/mL)
- MIC [19]: 0.9 µM (≈ 2.08 µg/mL)
- MIC (Escherichia coli JM109): 2.72 µM (≈ 6.28 µg/mL)
- MIC [21]: 2.72 µM (≈ 6.28 µg/mL)
Structure (SMILES): CC[C@H](C)[C@H](NC(=O)[C@H](CC(C)C)NC(=O)[C@H](CCCN=C(N)N)NC(=O)[C@H](Cc1cnc[nH]1)NC(=O)[C@@H](NC(=O)[C@@H](NC(=O)[C@H](CCCCN)NC(=O)CNC(=O)[C@@H](NC(=O)CNC(=O)[C@@H](NC(=O)[C@H](CC(C)C)NC(=O)CNC(=O)[C@H](CC(N)=O)NC(=O)[C@H](Cc1ccccc1)NC(=O)[C@@H](NC(=O)[C@H](Cc1cnc[nH]1)NC(=O)[C@H](Cc1cnc[nH]1)NC(=O)[C@H](Cc1ccccc1)NC(=O)[C@@H](N)Cc1ccccc1)[C@@H](C)CC)C(C)C)C(C)C)[C@@H](C)O)[C@@H](C)CC)C(=O)O [FFHHIFNGLVGVGKTIHRLI]

- MIC [22]: ≥ 119 µM
- MIC [23]: 10.5 µM (≈ 11.3 µg/mL)
Structure (SMILES): CC(C)C[C@H](NC(=O)[C@H](CC(C)C)NC(=O)[C@H](CCCCN)NC(=O)[C@H](CCCCN)NC(=O)[C@H](CC(C)C)NC(=O)[C@H](C)NC(=O)[C@H](CCCCN)NC(=O)[C@H](CC(C)C)NC(=O)[C@@H](N)Cc1ccccc1)C(N)=O [FLKALKKLL]

- MIC [27]: 3.16 µM (≈ 4.68 µg/mL)
- MIC [28]: 3.16 µM (≈ 4.68 µg/mL)
- MIC [29]: ≥ 35.4 µM
- MIC [30]: 22.4 µM (≈ 33.1 µg/mL)
- MIC [31]: 17.3 µM (≈ 25.6 µg/mL)
- MIC [32]: 3.16 µM (≈ 4.68 µg/mL)
- MIC [33]: 0.849 µM (≈ 1.25 µg/mL)
Structure (SMILES): CC[C@H](C)[C@H](NC(=O)[C@H](CCCCN)NC(=O)[C@H](CCCCN)NC(=O)[C@H](Cc1ccccc1)NC(=O)[C@H](CC(C)C)NC(=O)[C@H](CCCCN)NC(=O)[C@@H](N)Cc1c[nH]c2ccccc12)C(=O)N[C@@H](CC(C)C)C(=O)N[C@@H](CCCCN)C(=O)N[C@@H](Cc1ccc(O)cc1)C(=O)N[C@@H](CC(C)C)C(N)=O [WKLFKKILKYL]
